The results in this text go back to patent US10458996B1, “Methods for determining clinical response to TNF-alpha and/or JAK inhibitors in subjects with inflammatory diseases” (Beth Israel Deaconess Medical Center, Inc., priority 2016, dated 2019).

This experiment has as its system patients with IBD. As to the kind of experiment: Clinical response to anti-TNFα therapy in study patients (review of hospital records). Format: in vivo, human. Here is the method: Upon study completion, a total of 28 patients ([…]) with IBD, 82% with CD, had received anti-TNFα therapy. Specifically, 18 patients were treated with infliximab, 8 patients with adalimumab, 1 patient with golimumab and 1 patient with cetrolizumab pegol. The study participants' hospital electronic records were reviewed by physicians blinded to the results of the ex vivo testing and clinical responses to treatment with anti-TNFα were assessed.
Patients belonging to cohort 1 (N=6) came into the study as anti-TFNalpha naïve and had the shorter follow-up.
(a) need for hospitalization or surgical intervention for IBD-related problems (N=4);
(b) dose or frequency escalation of anti-TNFα treatment or switching to another anti-TNFα regimen (N=4);
(c) adding corticosteroids or an immunomodulator to the therapeutic scheme (N=3);
(d) treatment with emerging IBD drugs such as vedolizumab, tofacitinib, or ustekinumab (N=6).

Regarding infliximab, the clinical response rate was found to be 83% (patients positive in the ex vivo treatment (ex vivo responders, 10/12)) and 6% (patients with negative ex vivo results (ex vivo non-responders, 1/16)).
